From BigSolDB 2.1

Cc1[nH]c(=O)c(C#N)cc1-c1ccncc1
solubility (mole fraction)
Conditions	278.15 K	283.15 K	288.15 K	293.15 K	298.15 K	303.15 K	308.15 K	313.15 K	318.15 K	323.15 K
in DMF	7.95e-05	9.2e-05	0.000109	0.000129	0.000149	0.000173	0.000199	0.000225	0.000251	0.000285
in ethanol	9.24e-06	1.13e-05	1.35e-05	1.58e-05	1.84e-05	2.13e-05	2.43e-05	2.74e-05	3.1e-05	3.5e-05
in ethylene glycol	1.72e-05	2.09e-05	2.46e-05	2.89e-05	3.37e-05	3.89e-05	4.4e-05	5.03e-05	5.66e-05	6.44e-05
in isopropanol	2.44e-05	2.89e-05	3.43e-05	4.03e-05	4.73e-05	5.4e-05	6.16e-05	7.07e-05	7.92e-05	9.02e-05
in water	4.99e-07	5.98e-07	7.1e-07	8.34e-07	9.77e-07	1.12e-06	1.27e-06	1.44e-06	1.64e-06	1.85e-06
